Two substances from US20230323373A1, “SPRAYABLE CELL-PENETRATING PEPTIDES FOR SUBSTANCE DELIVERY IN PLANTS” (BASF Plant Science Company GmbH, priority 2020, published 2023) can be followed below.

Square brackets hold non-standard residues; d marks the D form. Ends that are not written are not given here.

The test system of one test is Arabidopsis leaf. The experiment in a line: Translocation of sprayed TAMRA-CPPs into Arabidopsis leaf cells (CLSM fluorescence). Type of test: in vivo, Arabidopsis thaliana. The following applies: for cell penetrating efficiency: epidermal cells, TAMRA-labelled CPP 1 mg/L in water, compared with KH9 and R9. From the text:
Cell-penetrating peptides (CPPs), also called protein transduction domains, are short peptides that facilitate the transport of cargo molecules through membranes to gain access to the cells. In many cases, CPPs are coupled to cargo molecules through covalent conjugation, forming CPP-cargo complexes. To date, DNA, RNA, nanomaterials and proteins such as antibodies were reported as cargo molecules. Most studies of the complex of CPPs and protein have contributed to the applications in mammalian cells, whereas only very limited studies have focused on plant cells. […] The plant cells are mainly containing cellulose, hemicellulose and pectin. […] BP100 (KKLFKKILKYL—SEQ ID NO: 7) is an amphiphilic peptide and has CPP function. KH9 (KHKHKHKHKHKHKHKHKH—SEQ ID NO: 10), R9 (RRRRRRRRR SEQ ID NO: 8), and D-R9 (rrrrrrrrr, D-form of R9 - SEQ ID NO: 9) are peptides containing both CPP and cationic biomolecule binding functions. BP100(KH)9 ([…]—SEQ ID NO: 11) and BP100CH7 ([…]—SEQ ID NO: 12) are fusion peptides containing CPP and cationic sequences which are designed as stimulus-response peptides and could release the cargo molecules (peptides, protein, RNA, DNA) into the cytoplasm. KAibA(KH)9, K-alpha-aminoisobutyric acid (AibA)-AKHKHKHKHKHKHKHKHKH, and KAibA(D-R9), K-alpha-aminoisobutyric acid (AibA)-Arrrrrrrrr are synthetic peptides and containing both CPP and cationic biomolecule binding functions. KAibA (U.S. Ser. No. 16/832,749) was chemoenzymatically synthesized using the polymerization reaction (ACS Biomater. Sci. Eng. 2020, 6, 6, 3287-3298). TAMRA-CPPs are CPPs that labeled by fluorescent molecule 5-carboxytetramethylrhodamine (TAMRA) at the C-terminal end and were used for optimization of various conditions. For the labelling of CPP with TAMRA, the amino acids in Boc-CPPs were deprotected using tri-fluoroacetic acid (TFA). A solution of tetramethylrhodamine-5-isothiocyanate in dimethyl sulfoxide (DMSO) was added to CPP solutions and kept stirring at 25° C. for 14 h. The solution was centrifuged at maximum speed at 4° C. for 60 minutes and the precipitate was washed with Milli-Q water. After lyophilizing, a pink solid was obtained. Dried precipitate of TAM RA-CPP was re-suspended with Milli-q and the TAMRA-CPP solution was kept at 1.0 mg/mL concentration in −80° C. Plasmid DNA that contains expression cassette of reporter gene such as GUS (SEQ ID NO: 1), GFP (SEQ ID NO: 2), DsRed (SEQ ID NO: 3), and Renilla luciferase (Rluc—SEQ ID NO: 4) was used to detect successful delivery into plant cells. […]
Each TAMRA-CPP was adjusted as concentration at 1 mg/L in water. […] Leaf surface was washed three times with water after 30, 90 and 150 min post spraying, and the intensity of fluorescence was measured by CLSM imaging analysis (FIG. 2A). […]

The next test relates to soybean leaves. The experiment in a line: Translocation of sprayed TAMRA-CPPs into soybean leaves (fluorescence imaging). The test is classed as in vivo, Glycine max. The following applies: for cell penetrating efficiency: soybean leaves, in general. Here is the method: Seeds of soybean (Glycine max) cultivars Enrei, William-82, and Peking, were germinated between germination papers that has been moistened with tap water. Then the seeds with papers were placed in a plastic bag and incubated in a growth chamber under 18 hours light/6 hours dark at 26° C. for three days. One and a quarter tea spoon of Multicoat 4 was mixed with 2 L of autoclaved sand, which was then moistened with tap water. Three days old soybean seedlings were then transplanted into containers filled with moist sand mix and incubated in the same growth chamber. Leaves from 5 weeks old plants were used for experiments.
Soybean leaves are different in both architecture and leaf chemical components. We further examined the translocation efficiency of highly efficient native CPP sequences in soybean leaves. Leaves from 5 weeks old plants were used for the experiment. Solutions containing 1.0 mg/mL of natural TAMRA-CPP; TAMRA-BP100, TAMRA-KH9, TAMRA-R9, and TAMRA-D-R9 were sprayed on soybean leaves of 3 different cultivars (Enrei, Peking, and William-82) and incubated for 30 min, 90 min, and 150 min (FIG. 3A). The fluorescence imaging and image analysis were conducted to determine the translocation efficiency of these CPPs to plant leaves. […] Different soybean cultivars responded differently to the translocation of CPPs to plant cells.
We tried to determine the efficiency of artificial CPPs containing Aib to soybean leaves using spraying. KAibA, KAibK, and KAibG were synthesized and labelled with TAMRA as described in Example 1. The solutions containing 1 mg/mL of these artificial TAMRA-CPPs were sprayed to fully expanded leaves of 5-weeks old soybean cultivar Enrei and the fluorescence imaging was carried out at 30 min, 90 min, and 150 min after spraying. […] However, the average fluorescent intensity in TAMRA-KAibA-treated soybean leaves was lower than that previously achieved by TAMRA-D-R9 (FIG. 3B and C).

Regarding “rrrrrrrrr ([dR][dR][dR][dR][dR][dR][dR][dR][dR]) [D-R9]”, the “depth of penetration and persistence in tissue” value in the test on Arabidopsis leaf (Arabidopsis leaf, summary) was “able to penetrate deep inside of the tissue and stay longer without degradation”. Further, the cell penetrating efficiency entry in the test with Arabidopsis leaf and with soybean leaves was “higher cell penetrating efficiency” in each case. Also, the penetrating efficiency entry in the test on Arabidopsis leaf (mesophyll cells) was “highest penetrating efficiency”. Moreover, the cell penetrating effect entry with soybean leaves (cultivar Peking) is “most efficient cell penetrating effect”.

Turning to KKLFKKILKYL (BP100), the cell penetrating efficiency entry with Arabidopsis leaf and with soybean leaves was “higher cell penetrating efficiency” throughout.
